Laboratory results: PMC9340768 (Journal of Medicinal Chemistry, 2022)
Starred links: 1 amine or outer side, 2 acyl side, 3 side chain; linkers in the order of their positions; H or OH if unused. Positions of bridges follow the written chain, without caps; N, C: chain ends. Non-standard residues stand in square brackets, D forms with d. Residues, ends and D or L forms follow the SMILES beside them. Chains are numbered I, II in the order given. TATA = O=C(CC[*:1])N1CN(C(=O)CC[*:2])CN(C(=O)CC[*:3])C1; X1 = O=C(CCc1cn(CCOCCOCCOCCOCCOCCC(=O)[*:2])nn1)[*:1]; 1Nal = N[C@@H](Cc1cccc2ccccc12)C(=O)O; Hyp = O=C(O)[C@@H]1C[C@@H](O)CN1; hArg = N=C(N)NCCCC[C@H](N)C(=O)O; tBuAla = CC(C)(C)C[C@H](N)C(=O)O; Nle = CCCC[C@H](N)C(=O)O

Columns and labels:
CD137 = CD137 (Homo sapiens, UniProt Q07011+Q96NY8); assay: HT1376/CD137 reporter coculture assay; assay type: cell-based
Sequence of CD137 (Q07011 24-255): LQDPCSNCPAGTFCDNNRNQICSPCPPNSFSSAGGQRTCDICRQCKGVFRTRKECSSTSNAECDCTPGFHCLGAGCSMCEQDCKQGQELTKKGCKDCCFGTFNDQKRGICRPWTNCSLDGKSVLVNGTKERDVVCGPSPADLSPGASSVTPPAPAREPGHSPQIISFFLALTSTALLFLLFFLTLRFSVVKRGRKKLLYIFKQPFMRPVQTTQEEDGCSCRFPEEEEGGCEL
Sequence of CD137 (Q96NY8 32-510): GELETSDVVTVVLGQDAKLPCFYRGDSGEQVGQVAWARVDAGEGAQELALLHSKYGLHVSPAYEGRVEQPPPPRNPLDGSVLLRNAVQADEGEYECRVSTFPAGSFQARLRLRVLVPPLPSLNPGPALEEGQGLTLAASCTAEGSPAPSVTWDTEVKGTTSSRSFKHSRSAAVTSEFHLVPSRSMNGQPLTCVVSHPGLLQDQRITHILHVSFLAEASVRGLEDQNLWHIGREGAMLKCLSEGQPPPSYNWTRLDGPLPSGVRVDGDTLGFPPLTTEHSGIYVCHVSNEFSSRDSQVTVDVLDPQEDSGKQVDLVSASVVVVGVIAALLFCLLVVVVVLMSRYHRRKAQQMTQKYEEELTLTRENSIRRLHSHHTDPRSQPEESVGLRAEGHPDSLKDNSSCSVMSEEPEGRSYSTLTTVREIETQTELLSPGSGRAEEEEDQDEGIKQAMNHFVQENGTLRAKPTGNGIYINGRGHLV

[1] = Pharmacokinetics in Sprague-Dawley rats; settings: rat, in vivo, iv, 2 mg/kg

CCCC[C@@H]1NC(=O)[C@H](Cc2ccc(O)cc2)NC(=O)[C@@H]2CCCN2C(=O)[C@H](CC(=O)O)NC(=O)[C@H](C)NC(=O)[C@H](Cc2ccccc2)NC(=O)[C@@H]2CSCCC(=O)N3CN(CN(C3)C(=O)CCSC[C@@H](C(=O)N[C@@H](C)C(N)=O)NC1=O)C(=O)CCSC[C@H](NC(C)=O)C(=O)N[C@@H](CC(C)(C)C)C(=O)N1CCC[C@H]1C(=O)N[C@@H](CCCCNC(=O)CCc1cn(CCOCCOCCOCCOCCOCCC(=O)N[C@H]3CSCCC(=O)N4CN5CN(C4)C(=O)CCSC[C@H](NC(=O)[C@@H](CC(=O)O)NC(=O)[C@H](Cc4cccc6ccccc46)NC(=O)[C@@H]4CCCN4C3=O)C(=O)N[C@@H](CCSC)C(=O)N[C@@H](CCCCNC(=N)N)C(=O)N[C@@H](CC(=O)O)C(=O)N[C@@H](Cc3c[nH]c4ccccc34)C(=O)N[C@@H](CO)C(=O)N[C@@H]([C@@H](C)O)C(=O)N3CCC[C@H]3C(=O)N3C[C@H](O)C[C@H]3C(=O)N[C@@H](Cc3c[nH]c4ccccc34)C(=O)N[C@H](C(N)=O)CSCCC5=O)nn1)C(=O)N[C@H](C)C(=O)N1CCC[C@H]1C(=O)N[C@@H](Cc1ccc(O)cc1)C(=O)N2 [BCY10571]
EC50 relative to similar compounds (CD137; vs dLys4 (BCY10572) or C-terminal Dap (BCY10573) attachment): two- to threefold weaker

CCCC[C@@H]1NC(=O)[C@H](Cc2ccc(O)cc2)NC(=O)[C@@H]2CCCN2C(=O)[C@H](CC(=O)O)NC(=O)[C@H](C)NC(=O)[C@H](Cc2ccccc2)NC(=O)[C@@H]2CSCCC(=O)N3CN(CN(C3)C(=O)CCSC[C@@H](C(=O)N[C@@H](C)C(N)=O)NC1=O)C(=O)CCSC[C@H](NC(C)=O)C(=O)N[C@@H](CC(C)(C)C)C(=O)N1CCC[C@H]1C(=O)N[C@@H](CCC(=O)O)C(=O)N[C@H](CCCCNC(=O)CCc1cn(CCOCCOCCOCCOCCOCCOCCOCCOCCOCCOCCNC(=O)CCOCCN(CCOCCC(=O)NCCOCCOCCOCCOCCOCCOCCOCCOCCOCCOCCn3cc(CCC(=O)NCCCC[C@H]4NC(=O)[C@H](CCC(=O)O)NC(=O)[C@@H]5CCCN5C(=O)[C@H](CC(C)(C)C)NC(=O)[C@@H](NC(C)=O)CSCCC(=O)N5CN6CN(C5)C(=O)CCSC[C@H](NC(=O)[C@H](Cc5ccc(O)cc5)NC(=O)[C@@H]5CCCN5C4=O)C(=O)N[C@@H](Cc4ccccc4)C(=O)N[C@@H](C)C(=O)N[C@@H](CC(=O)O)C(=O)N4CCC[C@H]4C(=O)N[C@@H](Cc4ccc(O)cc4)C(=O)N[C@@H](CCCC)C(=O)N[C@H](C(=O)N[C@@H](C)C(N)=O)CSCCC6=O)nn3)CCOCCC(=O)NCCOCCOCCOCCOCCOCCOCCOCCOCCOCCOCCn3cc(CCC(=O)N[C@H]4CSCCC(=O)N5CN6CN(C5)C(=O)CCSC[C@H](NC(=O)[C@@H](CC(=O)O)NC(=O)[C@H](Cc5cccc7ccccc57)NC(=O)[C@@H]5CCCN5C4=O)C(=O)N[C@@H](CCSC)C(=O)N[C@@H](CCCCNC(=N)N)C(=O)N[C@@H](CC(=O)O)C(=O)N[C@@H](Cc4c[nH]c5ccccc45)C(=O)N[C@@H](CO)C(=O)N[C@@H]([C@@H](C)O)C(=O)N4CCC[C@H]4C(=O)N4C[C@H](O)C[C@H]4C(=O)N[C@@H](Cc4c[nH]c5ccccc45)C(=O)N[C@H](C(N)=O)CSCCC6=O)nn3)nn1)C(=O)N1CCC[C@H]1C(=O)N[C@@H](Cc1ccc(O)cc1)C(=O)N2 [BCY11027]
half-life [1]: 35.4 min

CCCC[C@@H]1NC(=O)[C@H](Cc2ccc(O)cc2)NC(=O)[C@@H]2CCCN2C(=O)[C@H](CC(=O)O)NC(=O)[C@H](C)NC(=O)[C@H](Cc2ccccc2)NC(=O)[C@@H]2CSCCC(=O)N3CN(CN(C3)C(=O)CCSC[C@@H](C(=O)N[C@@H](CNC(=O)CCc3cn(CC(=O)N[C@H]4CSCCC(=O)N5CN6CN(C5)C(=O)CCSC[C@H](NC(=O)[C@@H](CC(=O)O)NC(=O)[C@H](Cc5cccc7ccccc57)NC(=O)[C@@H]5CCCN5C4=O)C(=O)N[C@@H](CCSC)C(=O)N[C@@H](CCCCNC(=N)N)C(=O)N[C@@H](CC(=O)O)C(=O)N[C@@H](Cc4c[nH]c5ccccc45)C(=O)N[C@@H](CO)C(=O)N[C@@H]([C@@H](C)O)C(=O)N4CCC[C@H]4C(=O)N4C[C@H](O)C[C@H]4C(=O)N[C@@H](Cc4c[nH]c5ccccc45)C(=O)N[C@H](C(N)=O)CSCCC6=O)nn3)C(N)=O)NC1=O)C(=O)CCSC[C@H](NC(C)=O)C(=O)N[C@@H](CC(C)(C)C)C(=O)N1CCC[C@H]1C(=O)N[C@@H](CCC(=O)O)C(=O)N[C@H](C)C(=O)N1CCC[C@H]1C(=O)N[C@@H](Cc1ccc(O)cc1)C(=O)N2 [BCY11375]
improvement of EC50 (CD137; CD137 affinity improved from BCY9399 to BCY11375): 3.6 fold

CCCC[C@@H]1NC(=O)[C@H](Cc2ccc(O)cc2)NC(=O)[C@@H]2CCCN2C(=O)[C@H](CC(=O)O)NC(=O)[C@H](C)NC(=O)[C@H](Cc2ccccc2)NC(=O)[C@@H]2CSCCC(=O)N3CN(CN(C3)C(=O)CCSC[C@H](NC(C)=O)C(=O)N[C@@H](CC(C)(C)C)C(=O)N[C@@H](CCC(=O)O)C(=O)N[C@@H](CCC(=O)O)C(=O)N[C@H](CCCCNC(=O)CCc3cn(CCOCCOCCOCCOCCOCCC(=O)N[C@H]4CSCCC(=O)N5CN6CN(C5)C(=O)CCSC[C@H](NC(=O)[C@@H](CC(=O)O)NC(=O)[C@H](Cc5cccc7ccccc57)NC(=O)[C@@H]5CCCN5C4=O)C(=O)N[C@@H](CCSC)C(=O)N[C@@H](CCCCNC(=N)N)C(=O)N[C@@H](CC(=O)O)C(=O)N[C@@H](Cc4c[nH]c5ccccc45)C(=O)N[C@@H](CO)C(=O)N[C@@H]([C@@H](C)O)C(=O)N4CCC[C@H]4C(=O)N4C[C@H](O)C[C@H]4C(=O)N[C@@H](Cc4c[nH]c5ccccc45)C(=O)N[C@H](C(N)=O)CSCCC6=O)nn3)C(=O)N3CCC[C@H]3C(=O)N[C@@H](Cc3ccc(O)cc3)C(=O)N2)C(=O)CCSC[C@@H](C(N)=O)NC1=O [BCY12377]
clearance ([1]; CL (mL/min/kg), SD rats, 2 mg/kg IV bolus): 7.8 mL/min/kg

CCCC[C@@H]1NC(=O)[C@H](Cc2ccc(O)cc2)NC(=O)[C@@H]2CCCN2C(=O)[C@H](CC(=O)O)NC(=O)[C@H](C)NC(=O)[C@H](Cc2ccccc2)NC(=O)[C@@H]2CSCCC(=O)N3CN(CN(C3)C(=O)CCSC[C@@H](C(=O)N[C@@H](C)C(N)=O)NC1=O)C(=O)CCSC[C@H](NC(C)=O)C(=O)N[C@@H](CC(C)(C)C)C(=O)N1CCC[C@H]1C(=O)N[C@@H](CCC(=O)O)C(=O)N[C@H](CCCCNC(=O)CCc1cn(CCOCCOCCOCCOCCOCCC(=O)NCCCC[C@H]3NC(=O)[C@H](Cc4cccc5ccccc45)NC(=O)[C@@H]4CCCN4C(=O)[C@@H](NC(C)=O)CSCCC(=O)N4CN5CN(C4)C(=O)CCSC[C@H](NC3=O)C(=O)N[C@@H](CCSC)C(=O)N[C@@H](CCCCNC(=N)N)C(=O)N[C@@H](Cc3c[nH]cn3)C(=O)N[C@@H](Cc3c[nH]c4ccccc34)C(=O)N[C@@H](CO)C(=O)N[C@@H]([C@@H](C)O)C(=O)N3CCC[C@H]3C(=O)N3C[C@H](O)C[C@H]3C(=O)N[C@@H](Cc3c[nH]c4ccccc34)C(=O)N[C@H](C(N)=O)CSCCC5=O)nn1)C(=O)N1CCC[C@H]1C(=O)N[C@@H](Cc1ccc(O)cc1)C(=O)N2 [BCY12579] (I: Ac-C[tBuAla]PE[dK]PYCFADPY[Nle]CA-NH2 / II: Ac-CP[1Nal][dK]CM[hArg]HWSTP[Hyp]WC-NH2; linker I:1-I:8-I:15, II:1-II:5-II:15 via TATA; linker I:5-II:4 via X1)
improvement of EC50 (CD137; Nectin-4 affinity improved from BCY11858 to BCY12579): 12 fold

CCCC[C@@H]1NC(=O)[C@H](Cc2ccc(O)cc2)NC(=O)[C@@H]2CCCN2C(=O)[C@H](CC(=O)O)NC(=O)[C@H](C)NC(=O)[C@H](Cc2ccccc2)NC(=O)[C@@H]2CSCCC(=O)N3CN(CN(C3)C(=O)CCSC[C@@H](C(=O)N[C@@H](C)C(N)=O)NC1=O)C(=O)CCSC[C@H](NC(C)=O)C(=O)N[C@@H](CC(C)(C)C)C(=O)N1CCC[C@H]1C(=O)N[C@@H](CCC(=O)O)C(=O)N[C@H](CCCCNC(=O)CCc1cn(CCOCCOCCOCCN(CCOCCOCCOCCn3cc(CCC(=O)NCCCC[C@H]4NC(=O)[C@H](CCC(=O)O)NC(=O)[C@@H]5CCCN5C(=O)[C@H](CC(C)(C)C)NC(=O)[C@@H](NC(C)=O)CSCCC(=O)N5CN6CN(C5)C(=O)CCSC[C@H](NC(=O)[C@H](Cc5ccc(O)cc5)NC(=O)[C@@H]5CCCN5C4=O)C(=O)N[C@@H](Cc4ccccc4)C(=O)N[C@@H](C)C(=O)N[C@@H](CC(=O)O)C(=O)N4CCC[C@H]4C(=O)N[C@@H](Cc4ccc(O)cc4)C(=O)N[C@@H](CCCC)C(=O)N[C@H](C(=O)N[C@@H](C)C(N)=O)CSCCC6=O)nn3)CCOCCOCCOCC(=O)NCCCNC(=O)Cn3cc(CCC(=O)NCCCNC(=O)COCCOCCOCCN(CCOCCOCCOCCn4cc(CCC(=O)NCCC(=O)N[C@H]5CSCCC(=O)N6CN7CN(C6)C(=O)CCSC[C@H](NC(=O)[C@@H](CC(=O)O)NC(=O)[C@H](Cc6cccc8ccccc68)NC(=O)[C@@H]6CCCN6C5=O)C(=O)N[C@@H](CCSC)C(=O)N[C@@H](CCCCNC(=N)N)C(=O)N[C@@H](CC(=O)O)C(=O)N[C@@H](Cc5c[nH]c6ccccc56)C(=O)N[C@@H](CO)C(=O)N[C@@H]([C@@H](C)O)C(=O)N5CCC[C@H]5C(=O)N5C[C@H](O)C[C@H]5C(=O)N[C@@H](Cc5c[nH]c6ccccc56)C(=O)N[C@H](C(N)=O)CSCCC7=O)nn4)CCOCCOCCOCCn4cc(CCC(=O)NCCC(=O)N[C@H]5CSCCC(=O)N6CN7CN(C6)C(=O)CCSC[C@H](NC(=O)[C@@H](CC(=O)O)NC(=O)[C@H](Cc6cccc8ccccc68)NC(=O)[C@@H]6CCCN6C5=O)C(=O)N[C@@H](CCSC)C(=O)N[C@@H](CCCCNC(=N)N)C(=O)N[C@@H](CC(=O)O)C(=O)N[C@@H](Cc5c[nH]c6ccccc56)C(=O)N[C@@H](CO)C(=O)N[C@@H]([C@@H](C)O)C(=O)N5CCC[C@H]5C(=O)N5C[C@H](O)C[C@H]5C(=O)N[C@@H](Cc5c[nH]c6ccccc56)C(=O)N[C@H](C(N)=O)CSCCC7=O)nn4)nn3)nn1)C(=O)N1CCC[C@H]1C(=O)N[C@@H](Cc1ccc(O)cc1)C(=O)N2 [BCY12970]
fold more potent than the 1:2 format (CD137; 2:2 molecule vs 1:2 format): 2.9 fold
